Values of other authors, collected in patent US20080131492A1, “Dosage forms for movement disorder treatment” (Spherics, Inc., priority 2006, published 2008).

Conditions: doses of 400 mg per day

C[C@@](Cc1ccc(O)c(O)c1)(NN)C(=O)O [carbidopa]
adverse effects: fails to elicit adverse effects
